# Results: US7858738B2, “Synthetic human peptides and pharmaceutical compositions comprising them for the treatment of systemic lupus erythematosus” (Yeda Research and Development Co., Ltd., priority 2001, dated 2010)
# How the values were obtained:
# BALB/c mice = assay: Treatment of 16/6Id-induced experimental SLE in BALB/c mice; format: in vivo; details: Table 12, 300 μg/mouse weekly
# Procedure: (§1) Induction and treatment of experimental SLE. In order to induce experimental SLE, BALB/c mice were immunized with 1-2 μg of the human mAb 16/6Id and boosted 3 weeks later. For the prevention of experimental SLE, mice were given hCDR1 or hCDR3 (mCDR1 or revmCDR1 as control peptide in Example 12) intravenously (i.v.) or s.c. concomitant with the immunization, and were injected weekly thereafter for 5 weeks. Treatment of an established disease started three and a half months following disease induction with the 16/6Id, when clinical manifestations were already observed. In Example 12, mice received 10 weekly injections (i.v. or s.c.) of mCDR1 or revmCDR1 at a dose of 100 μg/mouse. Prevention and treatment of SLE-like disease in (NZB×NZW)F1 mice with the hCDR1 or mCDR1 peptide. For prevention of SLE, mice at the age of 2 months, before disease manifestations are observed, were injected s.c. with hCDR1 (or mCDR1 in Example 12, 250 μg/mouse) once a week for 10 weeks. To treat an established disease, mice at the age of 5-7 months were injected with hCDR1 (in Example 12, mCDR1 s.c., 250 μg/mouse) once a week for 10 weeks. Proliferative Responses. PBL were isolated from heparinized venous blood by Ficoll-Hypaque (Pharmacia) density-gradient centrifugation. All assays were performed, in triplicate, in flat-bottomed microtiter plates (Falcon, Becton Dickinson, Oxmard, Calif., USA) in which 2×10^5 PBL were cultured in enriched RPMI-1640 as described (Dayan et al., 2000). The PBL were exposed to various concentrations (0.1-40 μg/well) of the human anti-DNA 16/6Id mAb with and without the addition of the various CDR-based peptides at a concentration of at least 10-fold excess over that of the 16/6Id. Phytohemagglutinin (PHA; 2 μg/well) was used as a control for culture conditions at each experiment. The cultures were incubated in 7.5% CO2 at 37° C. for 6 days. Eighteen hours before the cells were harvested, [^3H]-thymidine (0.5μ Ci of 5 Ci/mmol) (Nuclear Research Center, Negev, Israel) was added to all cultures. Results are expressed as the mean thymidine incorporation in counts per minute (CPM) of triplicate culture±SD, or as stimulation index (S.I.; the ratio of mean CPM at the optimal concentration of the human 16/6Id to the mean CPM in the presence of medium alone). A S.I.≧2 was considered a positive response (Dayan et al., 2000). Inhibition (the ratio of mean CPM in the presence of the 16/6Id and various CDR-based peptides to the mean CPM with the 16/6Id without the CDR-based peptide) above 50% was considered positive. Induction of Cytokine Production. Mice that were immunized with the human 16/6Id mAb and either treated or not with the CDR-based peptide, were killed at different periods during or after treatment with the peptide. Splenocytes and lymph node cells (LNC) were harvested and incubated (5×10^6/ml) in the presence of the 16/6Id. Supernatants were collected after 48 and 72 h. Assessment of Cytokines in the Supernatants. Supernatants were collected 48 hours following the initiation of the cultures and stored at −70° C. Measurements of IL-2, IL-10, IFN-γ, and TNF-α were performed by ELISA by using the relevant standards, capture and detecting Abs (Pharmingen) according to the manufacturer's instructions. TGF-β was determined by an ELISA. Briefly, plates were coated with the recombinant human TGF-β1 sRIII/Fc chimera (R & D Systems Inc., Minneapolis, Minn., USA), and the second Ab used was the biotinylated anti-human TGF-β1 antibody (R & D Systems Inc.). The substrate solution used was TMB color Reagent (Helix Diagnostics, West Sacramento, Calif.), and enzyme activity was evaluated by using 570- and 630-nm filters. Detection of SLE-Associated Clinical and Pathological Manifestations. Proteinuria was measured semiquantitatively by using Combistix kit (Ames Division, Bayer Diagnostics, Newbury, U.K.). White blood cells (WBC, for leukopenia) were counted after a 10-fold dilution of heparinized blood in distilled water containing 1% acetic acid (vol/vol). […]
# PBL of SLE patients = assay: Proliferative response of PBL of SLE patients to the human 16/6Id mAb; format: cell-based; details: for Percent Inhibition of proliferation of PBL: highest positive inhibition, peptide 50 or 100 μg/well
# Procedure: as §1
# [1] = tested on: lymph node cultures of BALB/c mice; assay: Cytokines in supernatants of 16/6Id-stimulated lymph node cultures of BALB/c mice with experimental SLE; format: in vivo; details: after 10 treatment injections
# Procedure: as §1, with “A S.I.≧2 was considered a positive response (Dayan et al., 2000). Inhibition (the ratio of mean CPM in the presence of the 16/6Id and various CDR-based peptides to the mean CPM with the 16/6Id without the CDR-based peptide) above 50% was considered positive. Induction of Cytokine Production. Mice that were immunized with the human 16/6Id mAb and either treated or not with the CDR-based peptide, were killed at different periods during or after treatment with the peptide. Splenocytes and lymph node cells (LNC) were harvested and incubated (5×10^6/ml) in the presence of the 16/6Id. Supernatants were collected after 48 and 72 h. Assessment of Cytokines in the Supernatants. Supernatants were collected 48 hours following the initiation of the cultures and stored at −70° C. Measurements of IL-2, IL-10, IFN-γ, and TNF-α were performed by ELISA by using the relevant standards, capture and detecting Abs (Pharmingen) according to the manufacturer's instructions.” left out, “Briefly, plates were coated with the recombinant human TGF-β1 sRIII/Fc chimera (R & D Systems Inc., Minneapolis, Minn., USA), and the second Ab used was the biotinylated anti-human TGF-β1 antibody (R & D Systems Inc.).” left out, “Detection of SLE-Associated Clinical and Pathological Manifestations.” left out
# [2] = tested on: splenocytes of (NZB×NZW)F1 mice; assay: Cytokine pattern in supernatants of splenocyte cultures of treated (NZB×NZW)F1 mice (ELISA); format: in vivo; details: end of treatment (10 weekly s.c. injections, 300 μg)
# Procedure: Induction and treatment of experimental SLE. In order to induce experimental SLE, BALB/c mice were immunized with 1-2 μg of the human mAb 16/6Id and boosted 3 weeks later. For the prevention of experimental SLE, mice were given hCDR1 or hCDR3 (mCDR1 or revmCDR1 as control peptide in Example 12) intravenously (i.v.) or s.c. concomitant with the immunization, and were injected weekly thereafter for 5 weeks. Treatment of an established disease started three and a half months following disease induction with the 16/6Id, when clinical manifestations were already observed. In Example 12, mice received 10 weekly injections (i.v. or s.c.) of mCDR1 or revmCDR1 at a dose of 100 μg/mouse. Prevention and treatment of SLE-like disease in (NZB×NZW)F1 mice with the hCDR1 or mCDR1 peptide. For prevention of SLE, mice at the age of 2 months, before disease manifestations are observed, were injected s.c. with hCDR1 (or mCDR1 in Example 12, 250 μg/mouse) once a week for 10 weeks. To treat an established disease, mice at the age of 5-7 months were injected with hCDR1 (in Example 12, mCDR1 s.c., 250 μg/mouse) once a week for 10 weeks. Proliferative Responses. PBL were isolated from heparinized venous blood by Ficoll-Hypaque (Pharmacia) density-gradient centrifugation. […] Results are expressed as the mean thymidine incorporation in counts per minute (CPM) of triplicate culture±SD, or as stimulation index (S.I.; the ratio of mean CPM at the optimal concentration of the human 16/6Id to the mean CPM in the presence of medium alone). […] TGF-β was determined by an ELISA. […] The substrate solution used was TMB color Reagent (Helix Diagnostics, West Sacramento, Calif.), and enzyme activity was evaluated by using 570- and 630-nm filters. […] Proteinuria was measured semiquantitatively by using Combistix kit (Ames Division, Bayer Diagnostics, Newbury, U.K.). White blood cells (WBC, for leukopenia) were counted after a 10-fold dilution of heparinized blood in distilled water containing 1% acetic acid (vol/vol). […]
sequence,measurement,setting,value
"GYYWSWIRQPPGKGEEWIG (Human) [hCDR1, 19-mer peptide based on the CDR1 of the heavy chain of the human 16/6Id mAb]","Intensity of ICD in kidneys, Mean ± SD",BALB/c mice; 16/6Id alone 1.6 ± 0.55,0.5 ± 0.5
same,"WBC/mm^3, Mean ± SD",BALB/c mice; 16/6Id alone 2800 ± 300,5800 ± 300 /mm^3
same,inhibition of the proliferative responses of PBL to the human 16/6Id mAb,"PBL of SLE patients; PBL of one SLE patient, FIG. 6",inhibited efficiently
same,inhibition of the proliferative responses of PBL to human 16/6Id mAb,"PBL of SLE patients; PBL of one SLE patient, FIG. 7, reversed murine peptides as controls",did inhibit efficiently
same,Percent Inhibition of proliferation of PBL,PBL of SLE patients; SLE patient 1,62%
same,Percent Inhibition of proliferation of PBL,PBL of SLE patients; SLE patient 2 (M. D.),70%
same,Percent Inhibition of proliferation of PBL,PBL of SLE patients; SLE patient 3,69%
same,Percent Inhibition of proliferation of PBL,PBL of SLE patients; SLE patient 4,<50%
same,Percent Inhibition of proliferation of PBL,PBL of SLE patients; SLE patient 5,88.5%
same,Percent Inhibition of proliferation of PBL,PBL of SLE patients; SLE patient 6,80%
same,Percent Inhibition of proliferation of PBL,PBL of SLE patients; SLE patient 7,76%
same,Percent Inhibition of proliferation of PBL,PBL of SLE patients; SLE patient 8 (S. D.),58%
same,Percent Inhibition of proliferation of PBL,PBL of SLE patients; SLE patient 9,69.5%
same,Percent Inhibition of proliferation of PBL,PBL of SLE patients; SLE patient 10,68.2%
same,Percent Inhibition of proliferation of PBL,PBL of SLE patients; SLE patient 11,<50%
same,Percent Inhibition of proliferation of PBL,PBL of SLE patients; SLE patient 12,82%
same,Percent Inhibition of proliferation of PBL,PBL of SLE patients; SLE patient 13,63%
same,Percent Inhibition of proliferation of PBL,PBL of SLE patients; SLE patient 14,56%
same,Percent Inhibition of proliferation of PBL,PBL of SLE patients; SLE patient 15,63%
same,Percent Inhibition of proliferation of PBL,PBL of SLE patients; SLE patient 16,<50%
same,Percent Inhibition of proliferation of PBL,PBL of SLE patients; SLE patient 17,70.5%
same,Percent Inhibition of proliferation of PBL,PBL of SLE patients; SLE patient 18,51.5%
same,Percent Inhibition of proliferation of PBL,PBL of SLE patients; SLE patient 19,63%
same,"Percent Inhibition of proliferation of PBL, Mean ± SD","PBL of SLE patients; mean over the 19 responder SLE patients (positive inhibitions, above 50%)",68.12 ± 9.57%
same,responders whose PBL proliferation was inhibited (inhibition above 50% considered positive),PBL of SLE patients; of the 19 responder SLE patients tested,84.2%
same,levels of TGF-β,"[1]; FIG. 15D, 15E (spleen cells)",up-regulated
same,INF-γ in supernatants of 16/6Id stimulated lymph node cultures,"[1]; both doses (200 and 300 μg), FIG. 15A",down regulated
same,TNF-α in supernatants of 16/6Id stimulated lymph node cultures,"[1]; both doses (200 and 300 μg), FIG. 15B",down regulated
same,IL-10 in supernatants of 16/6Id stimulated lymph node cultures,"[1]; both doses (200 and 300 μg), FIG. 15C",down regulated
same,INF-γ in supernatants of Con A-stimulated splenocytes,[2]; FIG. 13A,down-regulated
same,TGF-β in supernatants of non-stimulated splenocytes,[2]; FIG. 13C,increased secretion
same,IL-10 in supernatants of Con A-stimulated splenocytes,"[2]; to a lesser extent, FIG. 13B",down-regulated
